Measurements: paper PMC11413853, “Discovery of VU6007496: Challenges in the Development of an M1 Positive Allosteric Modulator Backup Candidate” (ACS Chemical Neuroscience, 2024)
Read-outs that look alike come from different tables or passages of the source.

Tests used:
mice = assay: Mouse phenotypic seizure liability assay (modified Racine score); format: in vivo; conditions: 100 mg/kg i.p., male C57Bl/6 mice, 3 h
Method: Brain plasma concentration ratio (Kp) was calculated by dividing brain concentration by plasma concentration for each animal. Unbound brain to unbound plasma concentration ratio (Kp,uu) is calculated using the following formula: Kp,uu = (Brain ng/g x brain fu)/(plasma ng/ml x plasma fu). […]
Behavioral Manifestations of Seizure Activity
To evaluate induction of behavioral manifestation of seizure activity, C57Bl/6 mice received administration of vehicle or 100 mg/kg M1 PAM. Compounds were formulated in 30% Captisol (11) or 10% Tween 80 (2-4 and 12) (pH 7.0) at a concentration of 10 mg/mL and injected i.p. (n = 3). Animals were monitored continuously and scored for behavioral manifestations of seizure activity at 5, 10, 15, and 30 min, and 1 and 3 h. Behavioral manifestations of seizures were scored using a modified Racine scoring system.2 Briefly, a score of 0 represents no behavior alterations; score 1, immobility, mouth and facial movements, or facial clonus; score 2, head nodding, tail extension; score 3, forelimb clonus, repetitive movements; score 4, rearing and tonic clonic seizure; and score 5, continuous rearing and falling, severe generalized tonic clonic seizure.

human M1 = target: T1, human M1 (Homo sapiens, UniProt P11229); assay: Calcium mobilization assay, human M1 (agonist and PAM modes); format: cell-based
T1 sequence (P11229 1-460): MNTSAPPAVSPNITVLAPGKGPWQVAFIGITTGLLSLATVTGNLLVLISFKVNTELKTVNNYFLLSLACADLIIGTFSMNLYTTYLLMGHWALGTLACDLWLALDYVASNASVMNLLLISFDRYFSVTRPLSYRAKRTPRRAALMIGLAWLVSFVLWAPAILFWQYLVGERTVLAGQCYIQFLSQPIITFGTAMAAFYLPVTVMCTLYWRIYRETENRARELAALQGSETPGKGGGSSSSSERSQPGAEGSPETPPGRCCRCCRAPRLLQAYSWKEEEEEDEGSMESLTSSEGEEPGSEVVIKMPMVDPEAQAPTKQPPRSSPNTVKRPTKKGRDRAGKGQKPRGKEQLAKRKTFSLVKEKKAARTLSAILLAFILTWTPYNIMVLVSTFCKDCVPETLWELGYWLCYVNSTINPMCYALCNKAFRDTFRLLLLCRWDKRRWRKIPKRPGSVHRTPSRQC

[1] = Rat plasma and brain exposure, 100 mg/kg i.p., 3 h; format: in vivo; conditions: brain and plasma, ip, 100 mg/kg i.p.
From the text: Due to the prevalence of metabolite A (VU6036463, 24) in both in vitro preparations and in vivo, we first synthesized and characterized 24. Utilizing intermediate 19 (Scheme 3), a Suzuki coupling with benzyl chloride 28 afforded a mixture of N-Boc protected analog 29 and N-H analog 29a in moderate isolated yield. Hydrolysis of the nitriles to the carboxylic acid, followed by a HATU-mediated coupling with tetrahydro-2H-pyran-4-amine delivered 24 in 81% yield over the two steps.[21] In our kinetic assays, 24 was an “active” metabolite, with the profile of an M1 ago-PAM. […] To ascertain if 24 could be the source of the adverse cholinergic events in rats, we dosed 11 and 24, in parallel, at a dose of 100 mg/kg i.p. in 30% captisol and prepared plasma and brain samples at a 3-h time point to determine brain exposure of the M1 ago-PAM 24. In this study, 11 achieved a total plasma concentration of 3.6 μM and a total brain concentration of 0.93 μM (Kp = 0.26).

| hM1 PAM AChmax (%) (human M1; PAM mode, % ACh max) | EC50 (human M1; PAM mode, read-out: hM1 PAM EC50) [nM] | hM1 Agonist AChmax (%) (human M1; agonist mode, % ACh max) | EC50 (human M1; agonist mode, read-out: hM1 Agonist EC50) [nM] | Kp at 3 h [1] | Structure (SMILES) | seizure liability / behavioral convulsions (modified Racine score) (mice) |
| --- | --- | --- | --- | --- | --- | --- |
|  |  |  |  |  | Cc1ccc(Cc2cc3c(=O)n([C@H]4CCCC[C@@H]4O)cnc3c3ccccc23)cn1 [compound 3, reference compound] | robust behavioral convulsions |
|  |  |  |  |  | Cn1ccc(-c2ccc(Cn3cc(C(=O)N[C@H]4CCOC[C@@H]4O)c4ncccc43)cc2)n1 [compound 4, reference compound] | robust behavioral convulsions |
| 71 | 4.9 | 60 | 176 | 0.38 | Cn1ccc(-c2ccc(Cc3cc(C(=O)N[C@H]4CCOC[C@@H]4O)nc4ccn(C)c34)cc2)n1 [compound 30] |  |
